Data reported in patent publication US5521173A, “Tricyclic benzazepine vasopressin antagonists” (American Home Products Corporation, priority 1995, dated 1996).

How the values were obtained:
[1] = target: T1, Vasopressin V1 receptor subtype in Human Platelet Membranes (Homo sapiens, UniProt P37288); experiment: Binding to Vasopressin V1 receptor subtype in Human Platelet Membranes
T1 construct: tissue Hudson Valley Blood Services, Westchester Medical Center, Valhalla, N.Y; host or cells: human platelets (frozen platelet rich plasma)
Description: Radioligand Binding Experiments with Human Platelet Membranes
(a) Platelet Membrane Preparation
Frozen platelet rich plasma (PRP), (Platelet Source: Hudson Valley Blood Services, Westchester Medical Center, Valhalla, N.Y.) are thawed to room temperature. The tubes containing the PRP are centrifuged at 16,000×g for 10 min. at 4° C. and the supernatant fluid discarded. The platelets resuspended in an equal volume of 50.0 mM Tris.HCl, pH 7.5 containing 120 mM NaCl and 20.0 mM EDTA. The suspension is recentrifuged at 16,000× g for 10 min. This washing step is repeated one more time. The wash discarded and the lysed pellets homogenized in low ionic strength buffer of Tris.HCl, 5.0 mM, pH 7.5 containing 5.0 mM EDTA. The homogenate is centrifuged at 39,000× g for 10 min. The resulting pellet is resuspended in Tris.HCl buffer, 70.0 mM, pH 7.5 and recentrifuged at 39,000× g for 10 min. The final pellet is resuspended in 50.0 mM Tris.HCl buffer pH 7.4 containing 120 mM NaCl and 5.0 mM KCl to give 1.0-2.0 mg protein per ml of suspension.
(b) Binding to Vasopressin V1 receptor subtype in Human Platelet Membranes
In wells of a 96 well format microtiter plate, add 100 μl of 50.0 mM Tris.HCl buffer containing 0.2% BSA and a mixture of protease inhibitors (aprotinin, leupeptin etc.). Then add 20 μl of [^3 H]Ligand (Manning or Arg^8 Vasopressin), to give final concentrations ranging from 0.01 to 10.0 nM. Initiate the binding by adding 80.0 μl of platelet suspension (approx. 100 μg protein). Mix all reagents by pipetting the mixture up and down a few times. Non specific binding is measured in the presence of 1.0 µM of unlabeled ligand (Manning or Arg^8 Vasopressin). Let the mixture stand undisturbed at room temperature for ninety (90) min. Upon this time, rapidly filter off the incubate under vacuum suction over GF/B filters, using a Brandel Harvester. Determine the radioactivity caught on the filter disks by the addition of liquid scintillant and counting in a liquid scintillator.

[2] = target: T2, Human V2 Vasopressin Receptor (Homo sapiens, UniProt P30518); experiment: Binding to Membranes of Mouse Fibroblast Cell Line (LV-2) Transfected with the cDNA Expressing the Human V2 Vasopressin Receptor; conditions: ** LV-2 cell membranes
T2 construct: expressed in transfected cells; host or cells: mouse fibroblast cell line LV-2
Description: (a) Membrane Preparation Flasks of 175 ml capacity, containing attached cells grown to confluence, are cleared of culture medium by aspiration. […] The content of all flasks is poured into a centrifuge tube and the cells pelleted at 300× g for 15 min. The Hank's based solution is aspirated off and the cells homogenized with a polytron at setting #6 for 10 sec in 10.0 mM Tris.HCl buffer, pH 7.4 containing 0.25M sucrose and 1.0 mM EDTA. The homogenate is centrifuged at 1500× g for 10 min to remove ghost membranes. The supernatant fluid is centrifuged at 100,000× g for 60 min to pellet the receptor protein. […] (b) Receptor Binding […] Non specific binding is assessed in the presence of 1.0 μM of unlabeled ligand, added in 20 μl volume. […] The radioactivity trapped on the filter disk by the ligand-receptor complex is assessed by liquid scintillation counting in a Packard LS Counter, with an efficiency of 65% for tritium. The data are analyzed for IC50 values by the LUNDON-2 program for competition (LUNDON SOFTWARE, Ohio).

[3] = test system: Vasopressin V2; experiment: Vasopressin V2 Antagonist Activity in Conscious Hydrated Rats; assay type: in vivo, rat; conditions: 10 mg/kg orally, AVP 0.4 μg/kg i.p.; for Osmolality: urine
Description: Two to four rats are used for each compound. One hour later, arginine vasopressin (AVP, antidiuretic hormore, ADH) dissolved in peanut oil is administered at 0.4 μg/kg intraperitoneally. Two rats in each test would not receive arginine vasopressin but only the vehicle (peanut oil) to serve as water-loading control. Twenty minutes later each rat is given 30 mL/kg of deionized water orally by gavage and is placed individually in a metabolic cage equipped with a funnel and a graduated glass cylinder to collect urine for four hours. Urine volume is measured and osmolality analyzed by use of a Fiske One-Ten osmometer (Fiske Assoc., Norwood, Mass., USA). Urinary sodium, potassium, and chloride are analyzed by use of ion-specific electrodes in a Beckman E3 (Electrolyte 3) Analyzer. In the following results, […] and decreased osmolality relative to AVP-control indicates activity.

[4] = target: T3, oxytocin receptors (Rattus norvegicus, UniProt P70536); experiment: Oxytocin Receptor Binding; parameters: species or system rat (female Sprague-Dawley); conditions: for IC50: 1.0 nM [3H]OT
T3 construct: The uteri are dissected out, cleaned of fat and connective tissues; from tissue; host or cells: uteri of DES-treated female Sprague-Dawley rats
T3 sequence (P70536 1-388): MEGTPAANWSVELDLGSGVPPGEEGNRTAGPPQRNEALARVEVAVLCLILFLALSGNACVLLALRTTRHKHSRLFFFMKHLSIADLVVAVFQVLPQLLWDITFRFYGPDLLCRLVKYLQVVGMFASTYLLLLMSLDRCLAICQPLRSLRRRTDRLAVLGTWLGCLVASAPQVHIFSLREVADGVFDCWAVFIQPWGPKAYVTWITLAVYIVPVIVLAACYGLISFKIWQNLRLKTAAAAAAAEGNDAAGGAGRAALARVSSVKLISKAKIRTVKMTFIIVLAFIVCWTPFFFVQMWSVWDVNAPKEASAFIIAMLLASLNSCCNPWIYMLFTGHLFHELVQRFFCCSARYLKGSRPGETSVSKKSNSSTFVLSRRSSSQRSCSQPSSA
Description: Oxytocin Receptor Binding
Female Sprague-Dawley rats weighing approximately 200-250 g are injected intramuscularly (i.m.) with 0.3 mg/kg of body weight of diethylstilbestrol (DES). The rats are sacrificed 18 hours later under pentobarbital anesthesia. The uteri are dissected out, cleaned of fat and connective tissues and rinsed in 50 ml of normal saline. The tissue pooled from six rats is homogenized in 50 ml of […] Tris.HCl, containing 0.5 mM dithiothreitol and 1.0 mM EDTA, adjusted to pH 7.4, using a polytron at setting 6 with three passes of 10 sec each. The homogenate is passed through two (2) layers of cheesecloth and the filtrate centrifuged at 1000× g for 10 min. The clear supernatant is removed and recentrifuged at 165,000× g for 30 min. The resulting pellet containing the oxytocin receptors is resuspended in 50.0 mM Tris.HCl containing 5.0 mM MgCl2 at pH 7.4, to give a protein concentration of 2.5 mg/ml of tissue suspension. This preparation is used in subsequent binding assays with [^3 H]Oxytocin.
Binding of 3,5-[^3 H]Oxytocin ([^3 H]OT) to its receptors is done in microtiter plates using [^3 H]OT, at various concentrations, in an assay buffer of 50.0 mM Tris.HCl, pH 7.4 and containing 5.0 mM MgCl2, and a mixture of protease inhibitors: BSA, 0.1 mg; aprotinin, 1.0 mg; 1,10-phenanthroline, 2.0 mg; […], 10.0 mg; and PMSF, 0.3 mg per 100 ml of buffer solution. Non-specific binding is determined in the presence of 1.0 uM unlabeled OT. The binding reaction is terminated after 60 min., at 22° C., by rapid filtration through glass fiber filters using a Brandel, cell harvester (Biomedical Research and Development Laboratories,Inc., Gaithersburg, Md.). Competition experiments are conducted at equilibrium using 1.0 nM [^3 H]OT and varying the concentration of the displacing agents. The concentrations of agent displacing 50% of [^3 H]OT at its sites (IC50) are calculated by a computer assisted LUNDON-2 program (LUNDON SOFTWARE INC., Ohio, USA).

T2 sequence (P30518 whole entry): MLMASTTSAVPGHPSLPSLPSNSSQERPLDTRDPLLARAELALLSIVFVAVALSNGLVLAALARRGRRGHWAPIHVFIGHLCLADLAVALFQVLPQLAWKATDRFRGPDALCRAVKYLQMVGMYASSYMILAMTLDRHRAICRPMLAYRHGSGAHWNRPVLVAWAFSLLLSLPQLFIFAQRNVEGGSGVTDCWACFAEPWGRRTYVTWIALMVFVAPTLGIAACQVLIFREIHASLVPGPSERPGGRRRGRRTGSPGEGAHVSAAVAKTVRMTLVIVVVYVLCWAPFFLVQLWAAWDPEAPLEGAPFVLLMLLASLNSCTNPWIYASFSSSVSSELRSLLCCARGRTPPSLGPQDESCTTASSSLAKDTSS
T1 sequence (P37288 whole entry): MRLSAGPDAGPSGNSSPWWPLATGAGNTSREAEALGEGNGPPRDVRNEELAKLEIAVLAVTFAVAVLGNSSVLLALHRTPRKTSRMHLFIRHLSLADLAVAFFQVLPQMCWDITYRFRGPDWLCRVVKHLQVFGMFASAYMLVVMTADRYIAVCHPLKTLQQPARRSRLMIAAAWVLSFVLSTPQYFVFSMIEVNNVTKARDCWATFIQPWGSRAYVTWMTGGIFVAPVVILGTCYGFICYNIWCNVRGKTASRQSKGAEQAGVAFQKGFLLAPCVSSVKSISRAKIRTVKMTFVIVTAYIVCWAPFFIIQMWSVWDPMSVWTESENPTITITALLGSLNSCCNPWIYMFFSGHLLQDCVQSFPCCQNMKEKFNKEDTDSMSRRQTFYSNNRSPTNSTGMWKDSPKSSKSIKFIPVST

Cc1ccccc1-c1ccc(C(=O)N2Cc3cccn3Cc3ccccc32)cc1 [Example 5, 10,11-Dihydro-10-[4-(2-methylphenyl)benzoyl]-5H-pyrrolo[2,1-c][1,4]benzodiazepine]
IC50 [1]: 88 nM
IC50 [2]: 2000 nM
Urine Volume [3]: 7.8 ml/4 hrs
Osmolality [3]: 992 mOsm/kg

O=C(c1ccc(-c2cccs2)nc1)N1Cc2cccn2Cc2ccccc21 [Example 22]
IC50 [1]: 960 nM
IC50 [2]: 3600 nM
inhibition at 10 µM [4]: 98%
IC50 [4]: 480 nM

O=C(c1ccc(-c2cccs2)cc1)N1Cc2cccn2Cc2ccccc21 [drawing 73]
IC50 [1]: 13 nM
IC50 [2]: 510 nM

CN(C)Cc1ccc2n1Cc1ccccc1N(C(=O)c1ccc(-c3cccs3)cc1)C2 [Example 6, 10,11-Dihydro-3-[(dimethylamino)methyl]-10-[4-(2-thienyl)benzoyl]-5H-pyrrolo[2,1-c][1,4]benzodiazepine]
IC50 [1]: 63 nM
IC50 [2]: 15000 nM
inhibition at 10 µM [4]: 100%
IC50 [4]: 330 nM

CCCc1ccc(-c2ccc(C(=O)N3Cc4cccn4Cc4ccccc43)cc2)cc1 [Example 21, 10,11-Dihydro-10-[(4'-propyl[1,1'-biphenyl]-4-yl)carbonyl]-5H-pyrrolo[2,1-c][1,4]benzodiazepine]
IC50 [1]: 12 nM
IC50 [2]: 58 nM
Urine Volume [3]: 4.5 ml/4 hrs
Osmolality [3]: 1347 mOsm/kg
inhibition at 10 µM [4]: 68%

O=C(c1ccc(-c2ccccc2[N+](=O)[O-])cc1)N1Cc2cccn2Cc2ccccc21 [Example 2, 10,11-Dihydro-10-[4-(2-nitrophenyl)benzoyl]-5H-pyrrolo[2,1-c][1,4]benzodiazepine]
IC50 [1]: 64 nM
IC50 [2]: 96 nM
Urine Volume [3]: 5.5 ml/4 hrs
Osmolality [3]: 1257 mOsm/kg
inhibition at 10 µM [4]: 100%
IC50 [4]: 49 ± 3 nM
